In PubChem BioAssay AID328 (DTP/NCI, 2004):
Where “and” joins values, the source holds several entries; their conditions need not be identical. Equal entries are not always repeated. Inconclusive results and toxic doses are left out.

Test system: BDF1 mice, P388 leukemia ip, median survival T/C
Experiment: NCI In Vivo Anticancer Drug Screen. Data for tumor model P388 Leukemia (intraperitoneal) in B6D2F1 (BDF1) mice
Details: endpoint: median survival time, higher = longer survival
In short: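 Survival ratio, drug arm over vehicle arm, in mice with a transplanted tumour.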

[1] = dose: 100.0 mg/kg/injection, schedule: Q04DX003 (ip), vehicle: saline with Tween-80
[2] = dose: 200.0 mg/kg/injection, schedule: Q04DX003 (ip), vehicle: saline with Tween-80
[3] = dose: 100.0 mg/kg/injection, schedule: Q01DX009 (ip), vehicle: saline with Tween-80
[4] = dose: 100.0 mg/kg/injection, schedule: Q04DX003 (ip), vehicle: saline
[5] = dose: 200.0 mg/kg/injection, schedule: Q04DX003 (ip), vehicle: saline
[6] = dose: 400.0 mg/kg/injection, schedule: Q04DX003 (ip), vehicle: saline
[7] = dose: 25.0 mg/kg/injection, schedule: Q01DX009 (ip), vehicle: saline
[8] = dose: 50.0 mg/kg/injection, schedule: Q01DX009 (ip), vehicle: saline
[9] = dose: 100.0 mg/kg/injection, schedule: Q01DX009 (ip), vehicle: saline
[10] = dose: 200.0 mg/kg/injection, schedule: Q01DX009 (ip), vehicle: saline
[11] = dose: 50.0 mg/kg/injection, schedule: Q01DX009 (ip), vehicle: saline with Tween-80
[12] = dose: 200.0 mg/kg/injection, schedule: Q01DX009 (ip), vehicle: saline with Tween-80
[13] = dose: 25.0 mg/kg/injection, schedule: Q01DX009 (ip), vehicle: saline with Tween-80
[14] = dose: 100.0 mg/kg/injection, schedule: Q01DX005 (ip), vehicle: saline with Tween-80
[15] = dose: 12.5 mg/kg/injection, schedule: Q01DX009 (ip), vehicle: saline with Tween-80
[16] = dose: 6.25 mg/kg/injection, schedule: Q01DX009 (ip), vehicle: saline with Tween-80
[17] = dose: 100.0 mg/kg/injection, schedule: Q01DX001 (ip), vehicle: saline
[18] = dose: 200.0 mg/kg/injection, schedule: Q01DX001 (ip), vehicle: saline

## CCN=C(N)Nc1ccc(NC(=O)c2ccc(C(=O)Nc3ccc(NC(N)=NCC)cc3)cc2)cc1
dose: 16.5 mg/kg/injection, schedule: Q04DX003 (ip), vehicle: saline with Tween-80
  T/C: 213 % of control
dose: 25.0 mg/kg/injection, schedule: Q04DX003 (ip), vehicle: saline with Tween-80
  T/C: 218 % of control
dose: 37.5 mg/kg/injection, schedule: Q04DX003 (ip), vehicle: saline with Tween-80
  T/C: 109 % of control
[1]
  T/C: 168 % of control
[2]
  T/C: 86 % of control

## CCCCNC(=O)Nc1ccc(N(C)C)cc1
[1]
  T/C: 90 % of control
[2]
  T/C: 90 % of control
dose: 400.0 mg/kg/injection, schedule: Q04DX003 (ip), vehicle: saline with Tween-80
  T/C: 100 % of control

## O=C1C=C(O/C=C/C(C(F)(F)F)C(F)(F)F)C(=O)c2ccccc21
[3]
  T/C: 109 % of control

## O=S(=O)(O)c1ccc(Nc2ccccc2)cc1
dose: 100.0 mg/kg/injection, schedule: Q01DX009 (ip), vehicle: Klucel (hydroxypropylcellulose) (HPC)
  T/C: 100 % of control
dose: 400.0 mg/kg/injection, schedule: Q01DX009 (ip), vehicle: Klucel (hydroxypropylcellulose) (HPC)
  T/C: 104 % of control

## CC1(C)OC(COCCOCCO)C(COCCOCCO)O1 (stereo unspecified)
[4]
  T/C: 96 % of control
[5]
  T/C: 103 % of control
[6]
  T/C: 96 % of control

## CC(=N\O)/C(C)=N/O.CC(=N\O)/C(C)=N/O.[Cl][Rh][Cl]
[7]
  T/C: 94 % of control
[8]
  T/C: 119 % of control
[9]
  T/C: 95 % of control and 119 % of control
[10]
  T/C: 100 % of control

## CC(=O)n1ccc(=O)[nH]c1=O
[11]
  T/C: 102 % of control
[3]
  T/C: 110 % of control
[12]
  T/C: 99 % of control

## Cc1ccc(C(=O)Cl)cc1S(=O)(=O)F
[13]
  T/C: 100 % of control
dose: 50.0 mg/kg/injection, schedule: Q04DX003 (ip), vehicle: saline with Tween-80
  T/C: 101 % of control
[3]
  T/C: 93 % of control
[1]
  T/C: 109 % of control
[2]
  T/C: 101 % of control

## c1ccc2c(c1)Cc1nc3ccccc3nc1-2
dose: 3.12 mg/kg/injection, schedule: Q01DX009 (ip), vehicle: water
  T/C: 87 % of control
dose: 6.25 mg/kg/injection, schedule: Q01DX009 (ip), vehicle: water
  T/C: 101 % of control and 110 % of control
dose: 12.5 mg/kg/injection, schedule: Q01DX009 (ip), vehicle: water
  T/C: 87 % of control and 110 % of control
dose: 25.0 mg/kg/injection, schedule: Q01DX009 (ip), vehicle: water
  T/C: 93 % of control and 106 % of control and 114 % of control
dose: 25.0 mg/kg/injection, schedule: Q04DX003 (ip), vehicle: water
  T/C: 116 % of control
dose: 50.0 mg/kg/injection, schedule: Q01DX009 (ip), vehicle: water
  T/C: 89 % of control and 95 % of control
dose: 50.0 mg/kg/injection, schedule: Q04DX003 (ip), vehicle: water
  T/C: 102 % of control
dose: 100.0 mg/kg/injection, schedule: Q01DX009 (ip), vehicle: water
  T/C: 87 % of control and 110 % of control
dose: 100.0 mg/kg/injection, schedule: Q04DX003 (ip), vehicle: water
  T/C: 103 % of control
dose: 200.0 mg/kg/injection, schedule: Q01DX009 (ip), vehicle: water
  T/C: 98 % of control
dose: 200.0 mg/kg/injection, schedule: Q04DX003 (ip), vehicle: water
  T/C: 104 % of control
dose: 400.0 mg/kg/injection, schedule: Q01DX009 (ip), vehicle: water
  T/C: 104 % of control
dose: 400.0 mg/kg/injection, schedule: Q04DX003 (ip), vehicle: water
  T/C: 113 % of control

## O=C1CN(Cc2ccccc2)CC(=O)N2CCCN12
dose: 50.0 mg/kg/injection, schedule: Q01DX005 (ip), vehicle: saline with Tween-80
  T/C: 101 % of control
[14]
  T/C: 90 % of control
dose: 200.0 mg/kg/injection, schedule: Q01DX005 (ip), vehicle: saline with Tween-80
  T/C: 92 % of control

## CC12CCC(O)CC1CCC1C2CCC2(C)C(C3=CC(=O)OC3)CCC12 (stereo unspecified)
dose: 140.0 mg/kg/injection, schedule: Q01DX010 (ip), vehicle: carboxymethylcellulose (CMC)
  T/C: 122 % of control
dose: 280.0 mg/kg/injection, schedule: Q01DX010 (ip), vehicle: carboxymethylcellulose (CMC)
  T/C: 122 % of control

## COc1ccc(N=C2C(=O)Nc3ccc(Br)cc32)cc1
[11]
  T/C: 100 % of control
[3]
  T/C: 105 % of control
[12]
  T/C: 104 % of control
dose: 400.0 mg/kg/injection, schedule: Q01DX009 (ip), vehicle: saline with Tween-80
  T/C: 104 % of control

## O=c1[nH]cnc2sc3c(c12)CCCC3
dose: 100.0 mg/kg/injection, schedule: Q04DX003 (ip), vehicle: saline sonified
  T/C: 95 % of control
dose: 200.0 mg/kg/injection, schedule: Q04DX003 (ip), vehicle: saline sonified
  T/C: 100 % of control
dose: 400.0 mg/kg/injection, schedule: Q04DX003 (ip), vehicle: saline sonified
  T/C: 100 % of control

## Oc1ccc2ccccc2c1/C=N\Sc1ccc(Cl)cc1
[15]
  T/C: 90 % of control
[13]
  T/C: 96 % of control
[11]
  T/C: 106 % of control

## Oc1ccccc1C=NC1CCCCC1.Oc1ccccc1C=NC1CCCCC1.[Co+2]
dose: 50.0 mg/kg/injection, schedule: Q01DX001 (ip), vehicle: saline sonified
  T/C: 90 % of control
dose: 100.0 mg/kg/injection, schedule: Q01DX001 (ip), vehicle: saline sonified
  T/C: 109 % of control
dose: 200.0 mg/kg/injection, schedule: Q01DX001 (ip), vehicle: saline sonified
  T/C: 109 % of control

## O=C1c2ccccc2C(=O)c2c(O)c3c(c(O)c21)CC=CC3
dose: 3.12 mg/kg/injection, schedule: Q01DX009 (ip), vehicle: saline with Tween-80
  T/C: 107 % of control
[16]
  T/C: 112 % of control
[15]
  T/C: 104 % of control
[13]
  T/C: 98 % of control
[11]
  T/C: 98 % of control

## Cc1ccc(C(=O)N(N)C2CCCCC2)cc1
[11]
  T/C: 92 % of control

## CC(=O)NC(CO)(CO)CO
[17]
  T/C: 100 % of control
[18]
  T/C: 95 % of control

## CC1(O)CCC2C3CCC4CC(=O)CCC4(C)C3(F)C(O)CC21C (stereo unspecified)
[17]
  T/C: 100 % of control
[9]
  T/C: 90 % of control
[4]
  T/C: 104 % of control
[18]
  T/C: 86 % of control
[10]
  T/C: 109 % of control
[5]
  T/C: 104 % of control
dose: 400.0 mg/kg/injection, schedule: Q01DX001 (ip), vehicle: saline
  T/C: 95 % of control
dose: 400.0 mg/kg/injection, schedule: Q01DX009 (ip), vehicle: saline
  T/C: 113 % of control
[6]
  T/C: 104 % of control

## CCOC(=O)c1ccc(Oc2ncc([N+](=O)[O-])s2)cc1
dose: 1.85 mg/kg/injection, schedule: Q01DX009 (ip), vehicle: saline
  T/C: 90 % of control
dose: 3.71 mg/kg/injection, schedule: Q01DX009 (ip), vehicle: saline
  T/C: 100 % of control
dose: 7.42 mg/kg/injection, schedule: Q01DX009 (ip), vehicle: saline
  T/C: 90 % of control
dose: 10.0 mg/kg/injection, schedule: Q01DX009 (ip), vehicle: saline with Tween-80
  T/C: 90 % of control
dose: 16.0 mg/kg/injection, schedule: Q01DX009 (ip), vehicle: saline with Tween-80
  T/C: 86 % of control
dose: 24.0 mg/kg/injection, schedule: Q01DX009 (ip), vehicle: saline with Tween-80
  T/C: 95 % of control

## COc1cccc2c1C(=O)c1c(O)c3c(c(O)c1C2=O)C[C@@](O)(C(=O)CO)C[C@@H]3OC1CC(NC(=S)Nc2ccc3ccccc3c2)C(O)C(C)O1 (stereo partly specified)
dose: 1.56 mg/kg/injection, schedule: Q01DX009 (ip), vehicle: saline
  T/C: 95 % of control
dose: 3.12 mg/kg/injection, schedule: Q01DX009 (ip), vehicle: saline
  T/C: 86 % of control
dose: 6.25 mg/kg/injection, schedule: Q01DX009 (ip), vehicle: saline
  T/C: 94 % of control
[7]
  T/C: 99 % of control and 107 % of control
[8]
  T/C: 107 % of control
[9]
  T/C: 96 % of control

## O=C1CN(c2ccccc2)CC(=O)N2Cc3ccccc3CN12
[14]
  T/C: 101 % of control

## O=CNc1ccc(/C=C\c2ccnc3ccccc23)cc1
dose: 3.13 mg/kg/injection, schedule: Q01DX009 (ip), vehicle: saline with Tween-80
  T/C: 111 % of control
[16]
  T/C: 106 % of control
[15]
  T/C: 103 % of control
[11]
  T/C: 94 % of control
[3]
  T/C: 86 % of control
[12]
  T/C: 91 % of control

## O=C1CSc2cc[nH]c21
dose: 50.0 mg/kg/injection, schedule: Q04DX003 (ip), vehicle: Klucel (hydroxypropylcellulose) (HPC)
  T/C: 90 % of control
dose: 100.0 mg/kg/injection, schedule: Q04DX003 (ip), vehicle: Klucel (hydroxypropylcellulose) (HPC)
  T/C: 90 % of control
dose: 200.0 mg/kg/injection, schedule: Q04DX003 (ip), vehicle: Klucel (hydroxypropylcellulose) (HPC)
  T/C: 104 % of control
